Measured values reported in patent publication US7030142B1, “Methods for the treatment of neuroleptic and related disorders using ziprasidone metabolites” (Sepracor Inc., priority 1999, dated 2006).
Structures can show the parent of a compound that is named as a salt.

Tests used:
5-HT2 receptor = details: Seeger et al. 1995; cited from earlier work
dopamine D2 receptor = dopamine D2 receptor (Homo sapiens, UniProt P14416); details: Seeger et al. 1995; cited from earlier work
5-HT1A = molecular target: T1, 5-HT1A (Homo sapiens, UniProt P08908); details: Seeger et al. 1995; cited from earlier work
T1 sequence (P08908 1-422): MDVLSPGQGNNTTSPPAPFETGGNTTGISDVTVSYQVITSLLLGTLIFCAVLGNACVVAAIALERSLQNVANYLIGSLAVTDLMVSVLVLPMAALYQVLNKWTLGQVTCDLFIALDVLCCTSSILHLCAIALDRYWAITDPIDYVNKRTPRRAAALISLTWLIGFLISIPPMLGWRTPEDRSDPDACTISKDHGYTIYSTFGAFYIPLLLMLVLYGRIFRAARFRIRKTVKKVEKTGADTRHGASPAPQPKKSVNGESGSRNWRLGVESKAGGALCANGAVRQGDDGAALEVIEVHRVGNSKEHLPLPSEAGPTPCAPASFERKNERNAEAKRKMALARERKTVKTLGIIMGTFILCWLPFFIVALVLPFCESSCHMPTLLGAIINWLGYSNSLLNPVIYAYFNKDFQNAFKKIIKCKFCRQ

5-HT1D = 5-HT1D (Homo sapiens, UniProt P28221); details: Seeger et al. 1995; cited from earlier work
Sequence of 5-HT1D (P28221 whole entry, species assumed): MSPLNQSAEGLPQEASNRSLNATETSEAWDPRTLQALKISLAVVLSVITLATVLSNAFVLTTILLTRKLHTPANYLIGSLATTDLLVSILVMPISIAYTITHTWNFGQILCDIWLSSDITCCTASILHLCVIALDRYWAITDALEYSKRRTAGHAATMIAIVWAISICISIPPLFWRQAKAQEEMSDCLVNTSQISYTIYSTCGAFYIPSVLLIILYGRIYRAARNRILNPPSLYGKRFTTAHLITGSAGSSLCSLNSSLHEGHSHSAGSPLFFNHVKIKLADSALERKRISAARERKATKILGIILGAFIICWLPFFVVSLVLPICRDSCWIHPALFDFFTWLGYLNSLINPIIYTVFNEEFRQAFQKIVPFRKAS

5-HT2C = molecular target: T2, 5-HT2C (Homo sapiens, UniProt P28335); details: Seeger et al. 1995; cited from earlier work
T2 sequence (P28335 33-458): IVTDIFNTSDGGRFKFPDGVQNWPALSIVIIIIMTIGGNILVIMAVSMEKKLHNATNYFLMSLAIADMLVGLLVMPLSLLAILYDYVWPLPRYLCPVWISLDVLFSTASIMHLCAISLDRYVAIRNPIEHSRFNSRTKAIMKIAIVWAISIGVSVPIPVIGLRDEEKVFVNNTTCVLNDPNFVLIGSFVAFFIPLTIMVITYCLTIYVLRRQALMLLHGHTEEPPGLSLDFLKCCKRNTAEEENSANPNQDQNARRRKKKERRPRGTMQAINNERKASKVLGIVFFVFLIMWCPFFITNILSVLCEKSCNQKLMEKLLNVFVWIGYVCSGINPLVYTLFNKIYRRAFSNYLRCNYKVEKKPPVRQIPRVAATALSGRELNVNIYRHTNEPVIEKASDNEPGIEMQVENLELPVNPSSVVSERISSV

D2 dopamine receptors = D2 dopamine receptors (Homo sapiens, UniProt P14416); experiment: Competition radioreceptor assay, D2 dopamine receptors; details: 90 minute incubation; (+)-butaclamol (0.25 μM) defining nonspecific binding; read-out: KD of radioligand
Sequence of D2 dopamine receptors (P14416 whole entry): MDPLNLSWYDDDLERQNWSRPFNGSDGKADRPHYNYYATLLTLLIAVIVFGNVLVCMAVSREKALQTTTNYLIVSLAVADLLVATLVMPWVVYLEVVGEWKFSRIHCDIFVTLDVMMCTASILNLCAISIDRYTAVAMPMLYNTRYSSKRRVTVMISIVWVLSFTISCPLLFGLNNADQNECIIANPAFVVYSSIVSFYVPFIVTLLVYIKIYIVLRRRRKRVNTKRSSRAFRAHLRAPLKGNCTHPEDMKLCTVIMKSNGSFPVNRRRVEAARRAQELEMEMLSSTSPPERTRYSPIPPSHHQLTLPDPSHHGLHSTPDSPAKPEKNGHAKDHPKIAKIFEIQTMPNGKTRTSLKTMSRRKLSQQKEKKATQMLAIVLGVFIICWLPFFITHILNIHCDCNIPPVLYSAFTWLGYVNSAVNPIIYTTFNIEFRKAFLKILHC
Description: Competition radioreceptor assays are used to determine the affinity (IC50's) of the phenylaminotetralins and other reference ligands for D2 dopamine receptors. […] Jarvie, J. R. et al., Eur. J. Pharmacol., 144:163–171 (1987) and Kula, N. S. et al., Dev. Brain Res., 66:286–287 (1992). […] Test agents are evaluated by running, in duplicate, six or more concentrations that bracketed the IC50. Three replications are performed, and the resulting data are analyzed using the ALLFIT program.

[1] = ziprasidone administered orally; cited from earlier work

Sequence of dopamine D2 receptor (P14416 whole entry, species assumed): as the sequence (P14416 whole entry) above

O=C1Cc2cc(CCN3CCN(c4nsc5ccccc45)CC3)c(Cl)cc2N1 [ziprasidone, (5-[2-{4-(1,2-benzisothiazol-3-yl)piperizin-1-yl}ethyl]-6-chlorooxindole)hydrochloride hydrate]
5-HT2 receptor antagonist (5-HT2 receptor): highly potent and selective | dopamine D2 receptor antagonist (dopamine D2 receptor): highly potent and selective | affinity for 5-HT1A receptor subtype (5-HT1A): high affinity | affinity for 5-HT1D receptor subtype (5-HT1D): high affinity | affinity for 5-HT2C receptor subtype (5-HT2C): high affinity

CN1CCc2cc(Cl)c(O)cc2C(c2ccccc2)C1 (centres unmarked) [[^3H]SCH23390]
Kd (D2 dopamine receptors): 0.34 nM

O=C1Cc2cc(CCN3CCN(C4=NS(=O)(=O)c5ccccc54)CC3)c(Cl)cc2N1 [ZIP-SO2, ziprasidone sulfone]
share of ziprasidone metabolites found in human urine [1]: less than 3%

O=C1Cc2cc(CCN3CCN(c4n[s+]([O-])c5ccccc45)CC3)c(Cl)cc2N1 (centres unmarked) [ZIP-SO, ziprasidone sulfoxide]
share of ziprasidone metabolites found in human urine [1]: less than 10%
